# Assay results from patent US9650339B2, “Inhibitors of histone demethylases” (Gilead Sciences, Inc., priority 2013, dated 2017).
# Tests used:
# [1] = target: T1, KDM5B (Homo sapiens, UniProt Q9UGL1); assay: Histone lysine demethylase immunofluorescence assay, U2OS cells transfected with KDM5B; type: cell-based; details: U2OS cells transfected with pCMVHA KDM5B; mark detected H3K4me2; 20 hours
# T1 construct: (a.a. 1-752); host or cells: U2OS
# T1 sequence (Q9UGL1 1-752): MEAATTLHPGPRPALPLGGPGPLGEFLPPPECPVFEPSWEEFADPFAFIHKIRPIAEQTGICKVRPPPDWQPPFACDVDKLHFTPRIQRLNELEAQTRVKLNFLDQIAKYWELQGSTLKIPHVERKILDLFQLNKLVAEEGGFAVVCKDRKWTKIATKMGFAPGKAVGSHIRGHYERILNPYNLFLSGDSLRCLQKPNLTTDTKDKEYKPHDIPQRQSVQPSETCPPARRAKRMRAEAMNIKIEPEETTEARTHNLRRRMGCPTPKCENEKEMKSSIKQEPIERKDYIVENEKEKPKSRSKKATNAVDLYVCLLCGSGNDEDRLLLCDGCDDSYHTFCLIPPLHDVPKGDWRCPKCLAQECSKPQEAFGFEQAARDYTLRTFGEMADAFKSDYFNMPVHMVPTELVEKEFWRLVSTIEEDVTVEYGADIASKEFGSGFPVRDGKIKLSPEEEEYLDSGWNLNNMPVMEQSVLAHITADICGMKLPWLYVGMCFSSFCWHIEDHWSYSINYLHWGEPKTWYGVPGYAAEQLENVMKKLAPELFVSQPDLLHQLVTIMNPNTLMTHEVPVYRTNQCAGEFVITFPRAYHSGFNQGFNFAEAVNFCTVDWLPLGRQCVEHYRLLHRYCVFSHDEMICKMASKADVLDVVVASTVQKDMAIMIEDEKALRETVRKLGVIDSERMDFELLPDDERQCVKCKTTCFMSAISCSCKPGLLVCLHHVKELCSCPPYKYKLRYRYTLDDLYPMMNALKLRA
# In short: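 U2OS cells were transiently transfected with HA-tagged demethylase and reseeded after 6 h into compound-containing DMEM/10% FBS for 20 h. Cells were fixed in formaldehyde and immunostained for HA and the relevant histone methyl mark, then imaged. IC50 is based on mean mark staining in HA+ transfected cells.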
# [2] = target: T2, KDM5C (JARID1C) (Homo sapiens, UniProt P41229); assay: Histone lysine demethylase AlphaLISA assay, KDM5C; type: biochemical; details: read-out: KDM5C HDME Inhibition IC50
# T2 construct: 2-1560; purchased BPS; host or cells: Bac (baculovirus system)
# Procedure: (§1) Assays are performed analogously to the protocol described by PerkinElmer (Roy et al. PerkinElmer Technical Note: AlphaLISA #12, April 2011)
# (§2) Enzymes are dissolved in enzyme buffer and incubated for 10 min before being added to 3% DMSO solutions of compounds in enzyme buffer. Incubated for another 10 minutes, before substrate solution is added and the reaction mixture is incubated at room temperature. 10 μL acceptor beads, suspended in Epigenetic Buffer (Perkin Elmer AL008) from stock, are added and the suspension is incubated in the dark at room temperature, before a suspension of streptavidin donor beads (Perkin Elmer 6760002) in Epigenetic Buffer is added. After incubation at room temperature in the dark the plates are read. […]
# H3K4M3B: H-ART(Kme3)QTARKSTGGKAPRKQLA-NH-Biotin (Caslo, Denmark) […]
# (§3) Substrate Solution: Substrate, 25 μM L-Asc, and 10 μM α-KG in Buffer A.
# [3] = target: T3, KDM4A (JMJD2A) (Homo sapiens, UniProt O75164); assay: Histone lysine demethylase AlphaLISA assay, KDM4A; type: biochemical; details: read-out: KDM4A HDME Inhibition IC50
# T3 construct: 1-350; purchased BPS Bioscience, US; host or cells: E. coli
# T3 sequence (O75164 1-350): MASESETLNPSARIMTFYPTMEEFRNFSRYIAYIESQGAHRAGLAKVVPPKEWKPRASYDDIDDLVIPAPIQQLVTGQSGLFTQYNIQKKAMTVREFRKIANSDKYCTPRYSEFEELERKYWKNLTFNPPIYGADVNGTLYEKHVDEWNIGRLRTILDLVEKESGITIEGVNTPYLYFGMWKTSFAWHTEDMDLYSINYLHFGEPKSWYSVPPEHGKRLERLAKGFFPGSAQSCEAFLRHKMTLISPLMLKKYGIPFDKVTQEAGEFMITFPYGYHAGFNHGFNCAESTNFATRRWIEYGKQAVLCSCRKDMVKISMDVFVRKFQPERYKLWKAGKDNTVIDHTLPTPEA
# Procedure: as §1
# Enzymes are dissolved in enzyme buffer and incubated for 10 min before being added to 3% DMSO solutions of compounds in enzyme buffer. Incubated for another 10 minutes, before substrate solution is added and the reaction mixture is incubated at room temperature. 10 μL acceptor beads, suspended in Epigenetic Buffer (Perkin Elmer AL008) from stock, are added and the suspension is incubated in the dark at room temperature, before a suspension of streptavidin donor beads (Perkin Elmer 6760002) in Epigenetic Buffer is added. After incubation at room temperature in the dark the plates are read.
# BK9M3: Biotin-ARTKQTAR(KMe3)STGGKAPRKQ-NH2 (Caslo, Denmark) […]
# as §3
# [4] = target: T4, KDM6B (JMJD3) (Homo sapiens, UniProt O15054); assay: Histone lysine demethylase AlphaLISA assay, KDM6B; type: biochemical; details: read-out: KDM6B HDME Inhibition IC50
# T4 construct: 1043-end; purchased BPS; host or cells: Bac (baculovirus system)
# Procedure: as §1, §2
# BK27M3: Biotin-ATKAAR(Kme3)SAPATGGVKKPHRY-NH2? (Caslo, Denmark) […]
# as §3
# T2 sequence (P41229 2-1560): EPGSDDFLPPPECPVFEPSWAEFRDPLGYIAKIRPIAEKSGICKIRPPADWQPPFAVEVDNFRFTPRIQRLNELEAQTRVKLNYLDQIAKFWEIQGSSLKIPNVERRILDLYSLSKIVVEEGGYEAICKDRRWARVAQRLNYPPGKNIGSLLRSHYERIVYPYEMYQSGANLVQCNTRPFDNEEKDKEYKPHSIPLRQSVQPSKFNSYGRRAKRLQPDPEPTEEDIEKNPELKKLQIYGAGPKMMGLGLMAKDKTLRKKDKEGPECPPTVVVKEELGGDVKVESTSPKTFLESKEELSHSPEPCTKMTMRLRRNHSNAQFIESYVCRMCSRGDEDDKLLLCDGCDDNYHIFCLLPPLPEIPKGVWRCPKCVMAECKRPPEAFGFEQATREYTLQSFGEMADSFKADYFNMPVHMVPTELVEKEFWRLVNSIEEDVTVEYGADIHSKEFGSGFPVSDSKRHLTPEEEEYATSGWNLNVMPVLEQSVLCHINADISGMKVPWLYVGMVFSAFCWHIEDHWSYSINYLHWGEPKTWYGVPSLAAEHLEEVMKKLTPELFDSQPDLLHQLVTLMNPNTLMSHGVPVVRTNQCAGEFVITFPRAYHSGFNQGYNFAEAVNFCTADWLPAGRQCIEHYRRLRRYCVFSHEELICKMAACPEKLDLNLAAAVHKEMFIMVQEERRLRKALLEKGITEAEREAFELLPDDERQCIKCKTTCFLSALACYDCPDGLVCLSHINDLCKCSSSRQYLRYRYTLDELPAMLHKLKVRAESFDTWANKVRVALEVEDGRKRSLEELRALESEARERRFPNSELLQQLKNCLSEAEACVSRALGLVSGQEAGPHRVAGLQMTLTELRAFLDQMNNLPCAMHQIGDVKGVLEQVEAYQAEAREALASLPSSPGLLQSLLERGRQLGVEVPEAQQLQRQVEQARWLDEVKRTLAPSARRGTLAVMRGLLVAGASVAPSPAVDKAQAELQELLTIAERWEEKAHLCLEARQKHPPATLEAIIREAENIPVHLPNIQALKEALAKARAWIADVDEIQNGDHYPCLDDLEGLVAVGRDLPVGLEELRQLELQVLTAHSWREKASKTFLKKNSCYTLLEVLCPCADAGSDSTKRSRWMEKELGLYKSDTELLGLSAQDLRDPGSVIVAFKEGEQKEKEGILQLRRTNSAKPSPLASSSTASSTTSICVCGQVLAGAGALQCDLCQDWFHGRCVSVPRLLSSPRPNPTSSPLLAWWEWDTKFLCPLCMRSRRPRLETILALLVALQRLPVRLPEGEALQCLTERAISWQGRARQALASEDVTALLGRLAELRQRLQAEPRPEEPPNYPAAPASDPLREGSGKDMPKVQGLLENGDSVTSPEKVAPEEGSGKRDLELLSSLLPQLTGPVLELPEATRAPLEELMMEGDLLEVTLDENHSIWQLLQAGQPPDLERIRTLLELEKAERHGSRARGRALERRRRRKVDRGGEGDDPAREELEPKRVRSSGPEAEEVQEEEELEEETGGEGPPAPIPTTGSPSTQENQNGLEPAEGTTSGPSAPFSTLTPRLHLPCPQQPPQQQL
# T4 sequence (O15054 1043-1682 isoform O15054-1 limits assumed): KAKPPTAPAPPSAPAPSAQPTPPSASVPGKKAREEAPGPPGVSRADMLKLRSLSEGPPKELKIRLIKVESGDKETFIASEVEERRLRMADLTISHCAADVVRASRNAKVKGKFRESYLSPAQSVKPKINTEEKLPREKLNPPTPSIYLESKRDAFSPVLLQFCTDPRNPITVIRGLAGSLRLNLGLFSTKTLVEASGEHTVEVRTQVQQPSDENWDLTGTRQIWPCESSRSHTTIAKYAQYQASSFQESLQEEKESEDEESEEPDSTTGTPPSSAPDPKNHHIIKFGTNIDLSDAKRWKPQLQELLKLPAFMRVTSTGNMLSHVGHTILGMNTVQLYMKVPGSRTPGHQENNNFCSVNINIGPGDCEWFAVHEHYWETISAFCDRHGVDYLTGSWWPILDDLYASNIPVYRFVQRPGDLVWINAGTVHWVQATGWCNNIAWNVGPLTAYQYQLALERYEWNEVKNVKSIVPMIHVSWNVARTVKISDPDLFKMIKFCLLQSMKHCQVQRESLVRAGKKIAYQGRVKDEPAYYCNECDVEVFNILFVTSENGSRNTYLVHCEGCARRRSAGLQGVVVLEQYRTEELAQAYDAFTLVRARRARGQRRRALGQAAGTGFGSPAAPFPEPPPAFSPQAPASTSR
IC50 [1] [nM],IC50 [2] [nM],IC50 [3] [nM],IC50 [4] [nM],SMILES
250 to 2500,< 250,> 2500,> 2500,"CN(C)C(=O)CNCc1cc(/C=N/CCCc2ccccc2)ccn1 [Compound 34, N,N-dimethyl-2-[({4-[[(3-phenylpropyl)imino]-methyl]pyridin-2-yl}methyl)amino]-acetamide]"
250 to 2500,< 250,< 250,> 2500,"CC1CC1/N=C/c1ccnc(CNCC(=O)N(C)C)c1 (centres unmarked) [Compound 35, N,N-dimethyl-2-[({4-[N-(2-methylcyclopropyl)-carboximidoyl]pyridin-2-yl}methyl)amino]-acetamide]"
250 to 2500,< 250,250 to 2500,> 2500,"CN(C)C(=O)CNCc1cc(/C=N/CCC2CCCCC2)ccn1 [Compound 36, 2-[({4-[[(2-cyclohexylethyl)imino]-methyl]pyridin-2-yl}methyl)amino]-N,N-dimethylacetamide]"
< 250,< 250,> 2500,> 2500,"CN(C)CCC/N=C/c1ccnc(CNCCCN(C)C)c1 [Compound 37, [3-(dimethylamino)propyl]-({4-[{[3-(dimethylamino)propyl]-imino}methyl]pyridin-2-yl}methyl)amine]"
< 250,< 250,> 2500,> 2500,"CN(C)CCCNCc1cc(/C=N/CCN(C)C)ccn1 [Compound 38, ({4-[{[2-(dimethylamino)ethyl]-imino}methyl]pyridin-2-yl}methyl)[3-(dimethylamino)-propyl]amine]"
> 2500,< 250,250 to 2500,> 2500,"CCSCCNCc1cc(/C=N/C2CC2)ccn1 [Compound 39, N-{[2-({[2-(ethylsulfanyl)-ethyl]amino}methyl)pyridin-4-yl]methylidene}-cyclopropanamine]"
< 250,< 250,> 2500,> 2500,"CN1CCCC1CCNCc1cc(/C=N/C2CC2)ccn1 (stereo not drawn) [Compound 40, N-{[2-({[2-(l-methylpyrrolidin-2-yl)ethyl]amino}methyl)-pyridin-4-yl]methylidene}-cyclopropanamine]"
< 250,< 250,> 2500,> 2500,"C(=N/C1CC1)/c1ccnc(CNCCCN2CCCC2)c1 [Compound 42, N-{[2-({[3-(pyrrolidin-1-yl)propyl]amino}-methyl)pyridin-4-yl]methylidene}-cyclopropanamine]"
< 250,< 250,250 to 2500,> 2500,"CN(C)C/C=C/CNCc1cc(/C=N/C2CC2)ccn1 [Compound 43, N-{[2-({[(2E)-4-(dimethylamino)but-2-en-1-yl]amino}-methyl)pyridin-4-yl]methylidene}-cyclopropanamine]"
< 250,< 250,> 2500,> 2500,"CN(C)CCCCNCc1cc(/C=N\C2CC2)ccn1 [Compound 45, N-{[2-({[4-(dimethylamino)butyl]-amino}methyl)-pyridin-4-yl]methylidene}-cyclopropanamine]"
< 250,< 250,250 to 2500,> 2500,"CN(C)CC1CCC(CNCc2cc(/C=N/C3CC3)ccn2)CC1 (centres unmarked) [Compound 46, N-[(2-{[({4-[(dimethylamino)-methyl]cyclohexyl}-methyl)amino]-methyl}pyridin-4-yl)methylidene]-cyclopropanamine]"
< 250,< 250,> 2500,> 2500,"CN(C)CCCCCNCc1cc(/C=N/C2CC2)ccn1 [Compound 47, N-{[2-({[5-(dimethylamino)-pentyl]amino}-methyl)pyridin-4-yl]methylidene}-cyclopropanamine]"
> 2500,< 250,< 250,> 2500,"CCN(CC)CCCCNC(=O)CNCc1cc(/C=N/C2CC2)ccn1 [Compound 48, 2-[({4-[N-cyclopropyl-carboximidoyl]pyridin-2-yl}methyl)amino]-N-[4-(diethylamino)-butyl]acetamide]"
< 250,< 250,< 250,> 2500,"O=C(CNCc1cc(/C=N/C2CC2)ccn1)N1CCC[C@@H]1CN1CCCC1 [Compound 49, 2-[({4-[N-cyclopropyl-carboximidoyl]pyridin-2-yl}methyl)amino]-1-[(2R)-2-(pyrrolidin-1-ylmethyl)pyrrolidin-1-yl]ethan-1-one]"
250 to 2500,< 250,< 250,> 2500,"CCN(CCC#N)C(=O)CNCc1cc(/C=N/C2CC2)ccn1 [Compound 50, N-(2-cyanoethyl)-2-[({4-[N-cyclopropyl-carboximidoyl]-pyridin-2-yl}methyl)amino]-N-ethylacetamide]"
250 to 2500,< 250,250 to 2500,> 2500,"CCN1CCCC1CNC(=O)CNCc1cc(/C=N/C2CC2)ccn1 (centres unmarked) [Compound 51, 2-[({4-[N-cyclopropyl-carboximidoyl]-pyridin-2-yl}methyl)-amino]-N-[(1-ethylpyrrolidin-2-yl)methyl]acetamide]"
250 to 2500,< 250,250 to 2500,> 2500,"CN(CCCn1cccn1)C(=O)CNCc1cc(/C=N/C2CC2)ccn1 [Compound 52, 2-[({4-[N-cyclopropyl-carboximidoyl]-pyridin-2-yl}methyl)amino]-N-methyl-N-[3-(1H-pyrazol-1-yl)propyl]acetamide]"
250 to 2500,< 250,< 250,250 to 2500,"O=C(CNCc1cc(/C=N/C2CC2)ccn1)NC1CCN(Cc2ccccc2)C1 (centres unmarked) [Compound 53, N-(1-benzylpyrrolidin-3-yl)-2-[({4-[N-cyclopropyl-carboximidoyl]pyridin-2-yl}methyl)amino]-acetamide]"
250 to 2500,< 250,250 to 2500,> 2500,"CN1CCN(C(=O)CNCc2cc(/C=N/C3CC3)ccn2)CC1 [Compound 54, 2-[({4-[N-cyclopropyl-carboximidoyl]-pyridin-2-yl}methyl)amino]-1-(4-methylpiperazin-1-yl)ethan-1-one]"
> 2500,250 to 2500,250 to 2500,> 2500,"O=C(CNCc1cc(/C=N/C2CC2)ccn1)N1CCC(Cc2ccccc2)CC1 [Compound 55, 1-(4-benzylpiperidin-1-yl)-2-[({4-[N-cyclopropyl-carboximidoyl]-pyridin-2-yl}methyl)amino]-ethan-1-one]"
